Experimental data reported in patent publication US20260306525A1, “COMBINATION THERAPY GLUCOCORTICOIDS AND GINSENOSIDE” (FYTAGORAS B.V., priority 2023, published 2026).

Assays:
FKBP5 = test: qPCR FKBP5 expression in HeLa cells (GR transactivation); assay type: cell-based, human; details: beclomethasone 1 μM, Rg1 50 μM or combination
Method: (§1) HeLa (human cervical cancer) cells were cultured in Dulbecco's Modified Eagle's (DMEM) High Glucose (HG) medium without phenol red supplemented with 10% Fetal Calf Serum (FCS) and 10% Glutamax (Sigma-Aldrich). The cells were maintained at 37° C. and 5% CO2. At 24 h before adding the treatment, the medium was replaced by DMEM HG with 10% charcoal-inactivated serum and 10% Glutamax (Sigma-Aldrich). The cells were exposed to short- and long-term compound treatments. […] Subsequently, TNF-α (10 ng/ml) was added along with the compound treatments for 6 h (this last step was not added in the actinomycin-D and cycloheximide experiments).
(§2) To determine levels of gene expression in zebrafish larvae, 3 dpf larvae were used in both wounded and non-wounded conditions, and after short- and long-term treatments. Groups of 15 larvae were collected in TRIzol reagent (ThermoFisher) and total RNA was isolated using miRNeasy mini kit (Qiagen, Hilden, Germany). For experiments in HeLa cells, cells were seeded in 6 well plates and after treatment, the cells were removed from the wells using TRIzol reagent and mRNA was isolated using miRNeasy mini kit (Qiagen) according to the manufacturer's instructions. The RNA samples were DNAse-treated utilizing the DNA-free™ DNA Removal Kit (ThermoFisher Scientific). The cDNA synthesis was performed using the iScript cDNA synthesis kit (Bio-Rad Laboratories, Hercules, CA, USA) using 1 μg of RNA per sample. For qPCR, 10 μM of forward primer and 10 μM of reverse primer, 12.5 μl of IQ SYBR Green Supermix (Bio-Rad Laboratories), and 2 μl of cDNA were added to the qPCR reaction mixture. […] The qPCR reactions were performed on a MyiQ-single-color real-time PCR detection system (Bio-Rad Laboratories), with initial denaturation for 3 min, 95° C., and 40 cycles of 15 s at 95.5° C., 15 s at 60° C., and 30 s at 72° C. Cycle threshold values (Ct values, i.e. the cycle numbers at which a threshold value of the fluorescence intensity was reached) were determined for each sample. The gene expression level for each sample was normalized using the expression of ppial (peptidylprolyl isomerase Ab (cyclophilin A)) for zebrafish samples, and 18S rRNA for human cells. The fold change per sample (compared to the respective control group) was calculated using the […]Ct method.

NFKBIA = test: qPCR NFKBIA expression in HeLa cells (GR transactivation); assay type: cell-based, human; details: beclomethasone 1 μM, Rg1 50 μM or combination
Method: as §1, §2

SGK1 = test: qPCR SGK1 expression in HeLa cells (GR transactivation); assay type: cell-based, human; details: beclomethasone 1 μM, Rg1 50 μM or combination
Method: as §1, §2

il6 = test: qPCR il6 expression in zebrafish larvae; assay type: in vivo, zebrafish (Danio rerio); details: for il6 expression after wounding: 10 μM beclomethasone, 50 μM Rg1 or combination, 4 h after wounding
Method: as §2, with “The gene expression level for each sample was normalized using the expression of ppial (peptidylprolyl isomerase Ab (cyclophilin A)) for zebrafish samples, and 18S rRNA for human cells.” left out
To determine mRNA levels of specific genes in zebrafish, 3 dpf larvae were used (wounded and non-wounded) and after 6 h of chemical treatments (2 h pre-wounding, 4 h post-wounding), as indicated. […] Cycle threshold values (Ct values, i.e. the cycle numbers at which a threshold value of the fluorescence intensity was reached) were determined for each sample. […] The fold change per sample (compared to the respective control group) was calculated using the ΔΔCt method.

il1b = details: previously shown, ref [17]; cited from earlier work

SMILES: CC(C)=CCC[C@](C)(O[C@@H]1O[C@H](CO)[C@@H](O)[C@H](O)[C@H]1O)[C@H]1CC[C@]2(C)[C@@H]1[C@H](O)C[C@@H]1[C@@]3(C)CC[C@H](O)C(C)(C)[C@@H]3[C@@H](O[C@@H]3O[C@H](CO)[C@@H](O)[C@H](O)[C@H]3O)C[C@]12C [Rg1, (3β,6α, 12β)-3,12-Dihydroxydammar-24-ene-6,20-diyl bis-β-D-glucopyranoside]
- FKBP5 expression, long-term (FKBP5): did not affect the expression of these genes
- FKBP5 expression, short-term (FKBP5): did not affect the expression of these genes
- NFKBIA expression, long-term (NFKBIA): did not affect the expression of these genes
- NFKBIA expression, short-term (NFKBIA): did not affect the expression of these genes
- SGK1 expression, long-term (SGK1): did not affect the expression of these genes
- SGK1 expression, short-term (SGK1): did not affect the expression of these genes
- il6 expression after wounding (il6): slightly decreased the expression of these genes
- il1b expression after wounding (il1b): transrepressed

SMILES: C[C@H]1C[C@H]2[C@@H]3CCC4=CC(=O)C=C[C@]4(C)[C@@]3(Cl)[C@@H](O)C[C@]2(C)[C@@]1(O)C(=O)CO [beclomethasone, reference compound]
- FKBP5 expression, long-term (FKBP5): increased over time
- FKBP5 expression, short-term (FKBP5): strongly increased the expression of these genes after short-term treatment
- NFKBIA expression, long-term (NFKBIA): reduced over time
- NFKBIA expression, short-term (NFKBIA): strongly increased the expression of these genes after short-term treatment
- SGK1 expression, long-term (SGK1): reduced over time
- SGK1 expression, short-term (SGK1): strongly increased the expression of these genes after short-term treatment
- il6 expression after wounding (il6): slightly decreased the expression of these genes
- il6 expression (il6; Example 2, wounded larvae): suppressed the expression levels of il1b, il6 and mmp9, similarly to Bec
- il1b expression after wounding (il1b): transrepressed
